In brackets after ≈: the same amount, converted by molar mass.
Legend:
[1] = Cytotoxicity against african green monkey Vero cells; type: cell-based; conditions: chlorocebus sabaeus, read-out: ED50 (the source's name)
[2] = system: KB; assay: Cytotoxicity against human KB cells; type: functional

Structure (SMILES) | CC50 [1] | ED50 [2]
CCCCCCC(O)CCC[C@H](O)[C@@H]1CC[C@@H]([C@@H]2CC[C@H]([C@H](O)CCCCCCCCCCCCC3=C[C@H](C)OC3=O)O2)O1 (stereo not given in full) [CAROLIN A] | 2 ng/mL (≈ 3.21 nM) | 1 ×10⁻⁷ ug/ml
CCCCCC(O)CCCC[C@H](O)[C@@H]1CC[C@@H]([C@@H]2CC[C@H]([C@H](O)CCCCCCCCCCCCC3=C[C@H](C)OC3=O)O2)O1 (stereo not given in full) [CAROLIN B] | 3.7 ng/mL (≈ 5.94 nM) | 5 ×10⁻⁶ ug/ml
CCCCCCC(O)CCC[C@H](O)[C@@H]1CC[C@@H]([C@@H]2CC[C@H]([C@H](O)CCCCCCCCCCC3=C[C@H](C)OC3=O)O2)O1 (stereo not given in full) [CAROLIN C] | 50 ng/mL (≈ 84.1 nM) | 2 ×10⁻⁴ ug/ml
CCCCCC(O)C(O)CCC[C@H](O)[C@H]1CC[C@@H]([C@@H]2CC[C@@H]([C@@H](O)CCCCCCCCCCCCC3=C[C@H](C)OC3=O)O2)O1 (stereo not given in full) [SPINENCIN] | 6 ng/mL (≈ 9.39 nM) | 1 ×10⁻⁵ ug/ml
CCCCCC[C@H](O)CCC[C@H](O)[C@H]1CC[C@H]([C@H]2CC[C@H]([C@H](O)CCCCCCCCCCCCC3=C[C@H](C)OC3=O)O2)O1 [SQUAMOCIN] | 10 ng/mL (≈ 16.1 nM) | 4 ×10⁻⁴ ug/ml
